Where two headings read alike, the source gives them in different places.
What was measured:
HCV replicon genotype 1b = experiment: microbe, parasite or virus in culture; format: cell-based, hepatitis C virus (HCV)
HCV replicon genotype 1a = experiment: microbe, parasite or virus in culture; format: cell-based, hepatitis C virus (HCV)
[1] = Hepatitis C virus, 96 h, read-out: 1b IC50 (nM)
[2] = Hepatitis C virus, 96 h, read-out: 1a IC50 (nM)

SMILES | IC50 (HCV replicon genotype 1b; read-out: 1b IC50) | IC50 (HCV replicon genotype 1a; read-out: 1a IC50) | IC50 (HCV replicon genotype 1b; [1]) | IC50 (HCV replicon genotype 1a; [2])
CNC(=O)c1c(-c2ccc(F)cc2)oc2cc(N(C)S(C)(=O)=O)c(-c3ccc4c(n3)C(=O)N([C@H](C)c3ccc(F)cc3)CO4)cc12 [Compound 30, (R)-2-(4-fluorophenyl)-5-(3-(1-(4-fluorophenyl)ethyl)-4-oxo-3,4-dihydro-2H-pyrido[2,3-e][1,3]oxazin-6-yl)-N-methyl-6-(N-methylmethylsulfonamido)benzofuran-3-carboxamide] | 2.23 nM | 0.981 nM | – | –
CNC(=O)c1c(-c2ccc(F)cc2)oc2cc(N(C)S(C)(=O)=O)c(-c3ccc4nnn(Cc5ccc(F)cc5)c(=O)c4c3)cc12 [Compound 44, 5-[3-(4-fluorobenzyl)-4-oxo-3,4-dihydro-1,2,3-benzotriazin-6-yl]-2-(4-fluorophenyl)-N-methyl-6-[methyl(methylsulfonyl)amino]-1-benzofuran-3-carboxamide] | – | – | 10.5 nM | 5.62 nM
CNC(=O)c1c(-c2ccc(F)cc2)oc2cc(N(C)S(C)(=O)=O)c(-c3ccc4c(n3)C(=O)N(Cc3ccc(OC)cc3)CO4)cc12 [Compound 5] | – | – | 1.59 nM | 3.06 nM
CNC(=O)c1c(-c2ccc(F)cc2)oc2cc(N(C)S(C)(=O)=O)c(-c3ccc4c(n3)C(=O)N(Cc3ccc(C#N)cc3)CO4)cc12 [Compound 9] | – | – | 3.91 nM | 8.03 nM
CNC(=O)c1c(-c2ccc(F)cc2)oc2cc(N(C)S(C)(=O)=O)c(-c3ccc4nnn([C@H](COC)c5ccc(F)cc5)c(=O)c4c3)cc12 [Compound 39, (S)-2-(4-fluorophenyl)-5-(3-(1-(4-fluorophenyl)-2-methoxyethyl)-4-oxo-3,4-dihydrobenzo[d][1,2,3]triazin-6-yl)-N-methyl-6-(N-methylmethylsulfonamido)benzofuran-3-carboxamide] | – | – | 9.27 nM | 4.04 nM
CNC(=O)c1c(-c2ccc(F)cc2)oc2cc(N(C)S(C)(=O)=O)c(-c3ccc4ncn(Cc5ccc(F)cn5)c(=O)c4c3)cc12 [Compound 52, 2-(4-fluorophenyl)-5-{3-[(5-fluoropyridin-2-yl)methyl]-4-oxo-3,4-dihydroquinazolin-6-yl}-N-methyl-6-[methyl(methylsulfonyl)amino]-1-benzofuran-3-carboxamide] | – | – | 2.11 nM | 6.37 nM
CNC(=O)c1c(-c2ccc(F)cc2)oc2cc(N(C)S(C)(=O)=O)c(-c3ccc4nc(C)n([C@H](C)c5ccc(F)cc5)c(=O)c4c3)cc12 [Compound 57, (R)-2-(4-fluorophenyl)-5-(3-(1-(4-fluorophenyl)ethyl)-2-methyl-4-oxo-3,4-dihydroquinazolin-6-yl)-N-methyl-6-(N-methylmethylsulfonamido)benzofuran-3-carboxamide] | – | – | 9.82 nM | 9.65 nM
